Where two headings read alike, the source gives them in different places. Positions of bridges follow the written chain, without caps; N, C: chain ends. Non-standard residues stand in square brackets, D forms with d. Residues, ends and D or L forms follow the SMILES beside them. Tle = CC(C)(C)[C@H](N)C(=O)O; Nle = CCCC[C@H](N)C(=O)O A value given as a limit tells only on which side of the number the result lay.

Holding throughout (test): cell-based
The target in one assay is hNav1.3 (Homo sapiens, UniProt Q9NY46). The following applies: IonWorks Quattro, read-out: IWQ Use Nav1.3. (In general: Patch clamp records ionic current or voltage across a cell membrane.)
Another assay has as its target hNav1.7 (Homo sapiens, UniProt Q15858). It counts as cell-based. The following applies: IonWorks Quattro, read-out: IWQ Use Nav1.7.
For another assay, the target named is hNav1.5 (Homo sapiens, UniProt Q14524).
Where [1] appears, read: use-dependent protocol, hNav1.3.
The mark [2] stands for this setting: use-dependent protocol, hNav1.7.
Where [3] appears, read: IonWorks Quattro, use-dependent block, hNav1.5, read-out: IWQ Use Nav1.5.

Chain of hNav1.5 (Q14524 whole entry, looked up): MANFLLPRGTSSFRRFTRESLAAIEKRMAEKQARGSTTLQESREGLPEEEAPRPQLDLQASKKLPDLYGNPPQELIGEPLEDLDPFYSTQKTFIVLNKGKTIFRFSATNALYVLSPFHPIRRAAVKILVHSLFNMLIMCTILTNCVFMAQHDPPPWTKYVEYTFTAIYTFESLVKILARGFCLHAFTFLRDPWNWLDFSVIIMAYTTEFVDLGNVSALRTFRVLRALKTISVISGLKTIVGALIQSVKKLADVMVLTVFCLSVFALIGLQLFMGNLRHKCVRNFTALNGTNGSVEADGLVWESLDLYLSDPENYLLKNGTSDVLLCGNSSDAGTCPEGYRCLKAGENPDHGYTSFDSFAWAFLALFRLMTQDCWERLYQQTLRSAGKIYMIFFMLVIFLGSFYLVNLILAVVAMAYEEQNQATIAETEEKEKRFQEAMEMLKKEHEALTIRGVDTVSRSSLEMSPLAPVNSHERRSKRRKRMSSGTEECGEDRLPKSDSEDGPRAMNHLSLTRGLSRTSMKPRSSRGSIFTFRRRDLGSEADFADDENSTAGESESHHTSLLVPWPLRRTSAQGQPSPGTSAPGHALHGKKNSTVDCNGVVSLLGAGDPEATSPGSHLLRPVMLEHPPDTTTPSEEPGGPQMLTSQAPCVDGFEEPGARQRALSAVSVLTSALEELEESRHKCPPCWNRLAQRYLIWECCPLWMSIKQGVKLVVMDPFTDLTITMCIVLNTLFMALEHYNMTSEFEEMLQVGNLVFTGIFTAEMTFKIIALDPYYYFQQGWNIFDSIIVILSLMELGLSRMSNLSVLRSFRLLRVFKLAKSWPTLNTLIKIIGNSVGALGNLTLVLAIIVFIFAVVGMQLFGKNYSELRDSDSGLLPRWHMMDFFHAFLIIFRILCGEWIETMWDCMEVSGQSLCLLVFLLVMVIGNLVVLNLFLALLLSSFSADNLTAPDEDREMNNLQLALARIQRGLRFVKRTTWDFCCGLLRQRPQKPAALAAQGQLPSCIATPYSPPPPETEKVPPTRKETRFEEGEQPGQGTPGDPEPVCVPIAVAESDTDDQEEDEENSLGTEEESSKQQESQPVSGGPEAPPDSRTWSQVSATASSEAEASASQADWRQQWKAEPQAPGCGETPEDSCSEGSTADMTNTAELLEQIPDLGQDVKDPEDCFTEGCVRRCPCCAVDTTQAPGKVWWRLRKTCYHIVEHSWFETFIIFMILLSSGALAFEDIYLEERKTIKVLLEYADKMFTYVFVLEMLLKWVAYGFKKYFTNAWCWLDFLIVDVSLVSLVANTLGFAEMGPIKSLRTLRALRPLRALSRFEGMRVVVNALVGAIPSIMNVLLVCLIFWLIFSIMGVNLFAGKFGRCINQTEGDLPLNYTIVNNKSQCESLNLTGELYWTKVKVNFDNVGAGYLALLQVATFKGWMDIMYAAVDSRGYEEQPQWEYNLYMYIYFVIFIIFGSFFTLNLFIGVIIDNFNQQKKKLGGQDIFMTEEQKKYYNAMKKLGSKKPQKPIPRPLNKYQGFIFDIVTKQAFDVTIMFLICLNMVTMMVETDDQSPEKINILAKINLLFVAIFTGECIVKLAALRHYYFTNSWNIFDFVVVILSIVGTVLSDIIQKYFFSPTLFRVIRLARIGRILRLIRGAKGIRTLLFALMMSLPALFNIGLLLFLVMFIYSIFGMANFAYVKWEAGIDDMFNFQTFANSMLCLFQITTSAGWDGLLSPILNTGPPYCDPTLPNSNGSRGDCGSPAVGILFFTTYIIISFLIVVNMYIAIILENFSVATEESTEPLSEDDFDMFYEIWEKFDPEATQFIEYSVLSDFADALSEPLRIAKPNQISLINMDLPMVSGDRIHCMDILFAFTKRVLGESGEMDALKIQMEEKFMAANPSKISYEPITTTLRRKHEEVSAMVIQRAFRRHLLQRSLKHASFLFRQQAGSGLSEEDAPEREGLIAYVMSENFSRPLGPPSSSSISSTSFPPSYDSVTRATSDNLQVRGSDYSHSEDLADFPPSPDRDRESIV
Chain of hNav1.7 (Q15858 whole entry, looked up): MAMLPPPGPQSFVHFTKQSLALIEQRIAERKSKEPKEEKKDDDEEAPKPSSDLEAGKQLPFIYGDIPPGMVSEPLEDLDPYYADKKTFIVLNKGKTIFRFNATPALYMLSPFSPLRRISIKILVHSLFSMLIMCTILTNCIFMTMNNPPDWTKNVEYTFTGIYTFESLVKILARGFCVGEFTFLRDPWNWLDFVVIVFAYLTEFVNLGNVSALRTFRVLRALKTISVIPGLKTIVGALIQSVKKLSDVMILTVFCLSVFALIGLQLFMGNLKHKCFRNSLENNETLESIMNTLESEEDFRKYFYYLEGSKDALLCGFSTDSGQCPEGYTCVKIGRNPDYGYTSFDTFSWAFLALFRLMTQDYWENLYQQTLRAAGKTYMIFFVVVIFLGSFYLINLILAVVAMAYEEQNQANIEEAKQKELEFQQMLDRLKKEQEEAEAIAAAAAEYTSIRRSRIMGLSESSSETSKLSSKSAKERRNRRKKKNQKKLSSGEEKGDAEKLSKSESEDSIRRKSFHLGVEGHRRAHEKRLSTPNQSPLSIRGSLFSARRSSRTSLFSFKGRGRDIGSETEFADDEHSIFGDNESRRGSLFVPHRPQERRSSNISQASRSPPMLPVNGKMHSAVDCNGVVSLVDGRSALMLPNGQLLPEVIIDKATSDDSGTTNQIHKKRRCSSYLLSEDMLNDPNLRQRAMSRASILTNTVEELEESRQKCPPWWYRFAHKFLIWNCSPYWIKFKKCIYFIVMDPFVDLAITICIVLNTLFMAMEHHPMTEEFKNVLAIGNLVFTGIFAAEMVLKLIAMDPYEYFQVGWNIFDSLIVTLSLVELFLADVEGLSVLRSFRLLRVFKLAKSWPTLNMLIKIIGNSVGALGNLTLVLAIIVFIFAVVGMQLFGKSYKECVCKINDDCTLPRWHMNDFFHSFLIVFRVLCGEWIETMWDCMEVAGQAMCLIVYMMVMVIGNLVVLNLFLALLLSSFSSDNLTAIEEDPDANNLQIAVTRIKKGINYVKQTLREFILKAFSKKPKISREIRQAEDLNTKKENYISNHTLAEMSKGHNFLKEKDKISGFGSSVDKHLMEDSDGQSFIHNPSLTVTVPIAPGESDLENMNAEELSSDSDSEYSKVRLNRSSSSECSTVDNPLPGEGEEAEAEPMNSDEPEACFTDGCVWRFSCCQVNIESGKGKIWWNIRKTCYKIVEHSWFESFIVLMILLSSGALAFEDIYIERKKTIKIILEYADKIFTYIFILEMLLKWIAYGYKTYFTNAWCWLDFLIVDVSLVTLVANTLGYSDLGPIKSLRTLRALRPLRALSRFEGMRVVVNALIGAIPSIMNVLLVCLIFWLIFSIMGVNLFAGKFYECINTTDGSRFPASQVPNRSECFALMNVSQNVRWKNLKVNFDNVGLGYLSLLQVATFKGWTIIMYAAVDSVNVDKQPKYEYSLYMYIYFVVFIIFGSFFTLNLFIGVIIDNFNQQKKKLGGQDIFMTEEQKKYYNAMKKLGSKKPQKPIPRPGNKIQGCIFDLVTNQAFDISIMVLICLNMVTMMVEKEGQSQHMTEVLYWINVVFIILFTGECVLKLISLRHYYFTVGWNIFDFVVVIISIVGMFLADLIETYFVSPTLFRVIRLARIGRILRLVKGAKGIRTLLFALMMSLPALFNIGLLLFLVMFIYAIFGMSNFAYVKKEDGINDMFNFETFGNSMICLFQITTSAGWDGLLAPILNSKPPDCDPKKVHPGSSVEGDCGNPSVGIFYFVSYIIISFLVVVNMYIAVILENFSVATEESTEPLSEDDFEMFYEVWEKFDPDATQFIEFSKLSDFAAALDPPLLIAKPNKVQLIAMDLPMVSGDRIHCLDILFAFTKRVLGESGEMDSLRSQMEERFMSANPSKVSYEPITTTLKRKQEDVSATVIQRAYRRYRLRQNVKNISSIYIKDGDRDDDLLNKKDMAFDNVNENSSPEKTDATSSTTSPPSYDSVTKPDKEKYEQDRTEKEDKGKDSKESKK

As to `CC[C@H](C)[C@@H]1NC(=O)[C@@H]2CSSC[C@@H]3NC(=O)[C@H](C(C)C)NC(=O)[C@H](CC(C)C)NC(=O)[C@H](CC(N)=O)NC(=O)[C@@H]4CCCN4C(=O)[C@H](CCCNC(=N)N)NC(=O)[C@H](CSSC[C@H](NC(=O)[C@@H](N)CC(=O)O)C(=O)N[C@@H](CC(C)C)C(=O)NCC(=O)N[C@@H](Cc4cccs4)C(=O)N[C@@H](CCSC)C(=O)N[C@@H](CCCNC(=N)N)C(=O)N[C@@H](CCCCN)C(=O)N2)NC(=O)[C@H](CSSC[C@@H](C(=O)N[C@@H](CCCCN)C(=O)N[C@@H](Cc2ccc(O)cc2)C(=O)N[C@H](C(=O)N[C@@H](Cc2ccccc2)C(N)=O)C(C)C)NC(=O)[C@H](Cc2c[nH]c4ccccc24)NC(=O)[C@H](CCCCN)NC(=O)[C@H](Cc2c[nH]cn2)NC(=O)[C@H]([C@@H](C)O)NC(=O)[C@H](CCCNC(=N)N)NC(=O)[C@H](CO)NC3=O)NC(=O)[C@H](CCCCN)NC(=O)[C@H](CC(=O)O)NC(=O)[C@H](CC(N)=O)NC(=O)[C@H](CC(=O)O)NC(=O)[C@@H]2CCCN2C1=O` [compound 682], the IC50 was 280 nM on hNav1.3 (setting [1]); 110 nM on hNav1.7 (setting [2]); greater than 5000 nM at hNav1.5 (IonWorks Quattro, use-dependent protocol, hNav1.5, read-out: IWQ Use Nav1.5).
As for `CC[C@H](C)[C@@H]1NC(=O)[C@@H]2CSSC[C@@H]3NC(=O)[C@H](C(C)C)NC(=O)[C@H](CC(C)C)NC(=O)[C@H](CC(N)=O)NC(=O)[C@@H]4CCCN4C(=O)[C@H](CCCNC(=N)N)NC(=O)[C@H](CSSC[C@H](NC(=O)[C@@H](N)CC(=O)O)C(=O)N[C@@H](CC(C)C)C(=O)NCC(=O)N[C@@H](Cc4ccccc4)C(=O)N[C@@H](CCSC)C(=O)N[C@@H](CCCNC(=N)N)C(=O)N[C@@H](CCCCN)C(=O)N2)NC(=O)[C@H](CSSC[C@@H](C(=O)N[C@@H](CCCCN)C(=O)N[C@@H](Cc2ccc(O)cc2)C(=O)N[C@H](C(=O)N[C@@H](Cc2ccccc2)C(N)=O)C(C)C)NC(=O)[C@H](Cc2c[nH]c4ccccc24)NC(=O)[C@H](CCCCN)NC(=O)[C@H](Cc2ccc(O)cc2)NC(=O)[C@H]([C@@H](C)O)NC(=O)[C@H](CCCNC(=N)N)NC(=O)[C@H](CO)NC3=O)NC(=O)[C@H](CCCCN)NC(=O)[C@H](CC(=O)O)NC(=O)[C@H](CC(N)=O)NC(=O)[C@H](CC(=O)O)NC(=O)[C@@H]2CCCN2C1=O` [compound 110] (H-DCLGFMRKCIPDNDKCCRPNLVCSRTYKWCKYVF-NH2; disulfide 2-17, 9-23, 16-30), the IC50 on hNav1.3 (Table 23, use, […]) came to 310 nM; at hNav1.7 (Table 23, use, […]) it was 190 nM; on hNav1.5 (Table 23, IonWorks Quattro, use, […], read-out: IWQ Use Nav1.5) it was 6390 nM.
Take `CC[C@H](C)[C@@H]1NC(=O)[C@@H]2CSSC[C@@H]3NC(=O)[C@H](C(C)C)NC(=O)[C@H](CC(C)C)NC(=O)[C@H](CC(N)=O)NC(=O)[C@@H]4CCCN4C(=O)[C@H](CCCNC(=N)N)NC(=O)[C@H](CSSC[C@H](NC(=O)[C@@H](N)CC(=O)O)C(=O)N[C@@H](CC(C)C)C(=O)NCC(=O)N[C@@H](C(C)(C)C)C(=O)N[C@@H](Cc4ccccc4)C(=O)N[C@@H](CCCNC(=N)N)C(=O)N[C@@H](CCCCN)C(=O)N2)NC(=O)[C@H](CSSC[C@@H](C(=O)N[C@@H](CCCCN)C(=O)N[C@@H](Cc2ccc(O)cc2)C(=O)N[C@H](C(=O)N[C@@H](Cc2ccccc2)C(N)=O)C(C)C)NC(=O)[C@H](Cc2c[nH]c4ccccc24)NC(=O)[C@H](CCCCN)NC(=O)[C@H](Cc2c[nH]cn2)NC(=O)[C@H]([C@@H](C)O)NC(=O)[C@H](CCCNC(=N)N)NC(=O)[C@H](CO)NC3=O)NC(=O)[C@H](CCCCN)NC(=O)[C@H](CC(=O)O)NC(=O)[C@H](CC(N)=O)NC(=O)[C@H](CC(=O)O)NC(=O)[C@@H]2CCCN2C1=O` [compound 609] (H-DCLG[Tle]FRKCIPDNDKCCRPNLVCSRTHKWCKYVF-NH2; disulfide 2-17, 9-23, 16-30): the IC50 on hNav1.3 (use-dependent block, hNav1.3) is 260 nM; at hNav1.7 (use-dependent block, hNav1.7), 81 nM; at hNav1.5 (setting [3]), 6700 nM.
In the case of `CC[C@H](C)[C@@H]1NC(=O)[C@@H]2CSSC[C@@H]3NC(=O)[C@H](C(C)C)NC(=O)[C@H](CC(C)C)NC(=O)[C@H](CC(N)=O)NC(=O)[C@@H]4CCCN4C(=O)[C@H](CCCNC(=N)N)NC(=O)[C@H](CSSC[C@H](NC(=O)[C@@H](N)CC(=O)O)C(=O)N[C@@H](CC(C)C)C(=O)NCC(=O)N[C@@H](Cc4ccc(C)cc4)C(=O)N[C@@H](CCSC)C(=O)N[C@@H](CCCNC(=N)N)C(=O)N[C@@H](CCCCN)C(=O)N2)NC(=O)[C@H](CSSC[C@@H](C(=O)N[C@@H](CCCCN)C(=O)N[C@@H](Cc2ccc(O)cc2)C(=O)N[C@H](C(=O)N[C@@H](Cc2ccccc2)C(N)=O)C(C)C)NC(=O)[C@H](Cc2c[nH]c4ccccc24)NC(=O)[C@H](CCCCN)NC(=O)[C@H](Cc2c[nH]cn2)NC(=O)[C@H]([C@@H](C)O)NC(=O)[C@H](CCCNC(=N)N)NC(=O)[C@H](CO)NC3=O)NC(=O)[C@H](CCCCN)NC(=O)[C@H](CC(=O)O)NC(=O)[C@H](CC(N)=O)NC(=O)[C@H](CC(=O)O)NC(=O)[C@@H]2CCCN2C1=O` [compound 686], the figures for the IC50 on hNav1.3 (setting [1]), on hNav1.7 (setting [2]) and against hNav1.5 (IWQ Use Nav1.5) were 180 nM, 490 nM and greater than 5000 nM, respectively.
`CCCC[C@@H]1NC(=O)CNC(=O)[C@H](CC(C)C)NC(=O)[C@@H](NC(=O)[C@@H](N)CC(=O)O)CSSC[C@@H]2NC(=O)[C@@H]3CSSC[C@@H](C(=O)N[C@@H](CCCCN)C(=O)N[C@@H](Cc4ccc(O)cc4)C(=O)N[C@H](C(=O)N[C@@H](Cc4ccccc4)C(N)=O)C(C)C)NC(=O)[C@H](Cc4c[nH]c5ccccc45)NC(=O)[C@H](CCCCN)NC(=O)[C@H](Cc4c[nH]cn4)NC(=O)[C@H]([C@@H](C)O)NC(=O)[C@H](CCCNC(=N)N)NC(=O)[C@H](CO)NC(=O)[C@H](CSSC[C@H](NC(=O)[C@H](CCCCN)NC(=O)[C@H](CCCNC(=N)N)NC(=O)[C@H](Cc4ccccc4)NC1=O)C(=O)N[C@@H]([C@@H](C)CC)C(=O)N1CCC[C@H]1C(=O)N[C@@H](CC(=O)O)C(=O)N[C@@H](CC(N)=O)C(=O)N[C@@H](CC(=O)O)C(=O)N[C@@H](CCCCN)C(=O)N3)NC(=O)[C@H](C(C)C)NC(=O)[C@H](CC(C)C)NC(=O)[C@H](CC(N)=O)NC(=O)[C@@H]1CCCN1C(=O)[C@H](CCCNC(=N)N)NC2=O` [compound 607] (H-DCLG[Nle]FRKCIPDNDKCCRPNLVCSRTHKWCKYVF-NH2; disulfide 2-17, 9-23, 16-30): the IC50 on hNav1.3 (use-dependent block, hNav1.3) worked out at 67 nM; on hNav1.7 (use-dependent block, hNav1.7), 16 nM; at hNav1.5 (setting [3]), 11300 nM.
For `CC[C@H](C)[C@@H]1NC(=O)[C@@H]2CSSC[C@@H]3NC(=O)[C@H](C(C)C)NC(=O)[C@H](CC(C)C)NC(=O)[C@H](CC(N)=O)NC(=O)[C@@H]4CCCN4C(=O)[C@H](CCCNC(=N)N)NC(=O)[C@H](CSSC[C@H](NC(=O)[C@@H](N)CC(=O)O)C(=O)N[C@@H](CC(C)C)C(=O)NCC(=O)N[C@@H](C)C(=O)N[C@@H](Cc4ccccc4)C(=O)N[C@@H](CCCNC(=N)N)C(=O)N[C@@H](CCCCN)C(=O)N2)NC(=O)[C@H](CSSC[C@@H](C(=O)N[C@@H](CCCCN)C(=O)N[C@@H](Cc2ccc(O)cc2)C(=O)N[C@H](C(=O)N[C@@H](Cc2ccccc2)C(=O)O)C(C)C)NC(=O)[C@H](Cc2c[nH]c4ccccc24)NC(=O)[C@H](CCCNC(=N)N)NC(=O)[C@H](Cc2c[nH]cn2)NC(=O)[C@H]([C@@H](C)O)NC(=O)[C@H](CCCNC(=N)N)NC(=O)[C@H](CO)NC3=O)NC(=O)[C@H](CCCCN)NC(=O)[C@H](CC(=O)O)NC(=O)[C@H](C)NC(=O)[C@H](CC(=O)O)NC(=O)[C@@H]2CCCN2C1=O` [compound 836] (H-DCLGAFRKCIPDADKCCRPNLVCSRTHRWCKYVF-OH; disulfide 2-17, 9-23, 16-30) the same measures were 1300 nM, 4100 nM and greater than 5000 nM.

These data come from patent publication US9340590B2 (priority 2011, dated 2016).
